According to article PMC11002875, “Linking triphenylphosphonium cation to a bicyclic hydroquinone improves their antiplatelet effect via the regulation of mitochondrial function” (Redox Biology, 2024):
Like-named read-outs stand apart in the source and are kept apart here.

How the values were obtained:
Washed platelets [1] = assay: Platelet aggregation in washed platelets (aggregometer); assay type: cell-based, Human; conditions: washed platelets
Experimental: (§1) Human platelet purification. The blood sample was obtained from voluntary donors (10 days without antiplatelet medication) who agreed to participate after signing informed consent (Scientific Ethics Committee of the University of Talca N° 04–2022). Briefly, blood anticoagulated with acid-citrate-dextrose (ACD) was obtained in a 4:1 v/v ratio. The sample was centrifuged for 12 min at 250 g to obtain platelet-rich plasma (PRP). Subsequently, the PRP was centrifuged for 8 min at 900 g to obtain the platelet pellet. The plasma supernatant was removed, and the platelets were resuspended in Tyrodes buffer without calcium plus ACD in a ratio of 5:1 v/v. The platelets were centrifuged once more for 8 min at 900 g and the pellet was resuspended in Tyrodes buffer without calcium. Finally, the platelets were counted (Mindray BC-3000 Plus hematology counter, Japan), adjusted to the desired concentration, and used within 3 h.
Platelet aggregation. Washed platelets (200-250 × 10^6 platelets/mL) were preincubated with 2 mM CaCl2 and then with the compounds under study for 5 min at 37 °C in the aggregometer (Agg RAM- Helena Biosciences). Aggregation was initiated with the agonists: collagen 2 μg/mL; convulxin 20 ng/mL; TRAP-6 (Thrombin receptor activator peptide 6) 5 μM; PMA (Phorbol myristate acetate) 100 nM or arachidonic acid 250 μg/mL. The aggregation curve was evaluated for 5 min at 37 °C in shaking at 1000 rpm.

Washed platelets [2] = assay: Platelet activation markers in washed platelets (flow cytometry); assay type: cell-based, Human; conditions: collagen 2 μg/mL; compounds 1, 5 and 10 μM; vs activated control
Experimental: as §1
Platelet activation markers. Washed platelets (200-250 × 10^6 platelets/mL) were incubated with the compounds (1, 5 and 10 μM), then activated with collagen 2 μg/mL and incubated for 5 min at 37 °C. Aliquots of the reaction were then collected and labeled separately with human antibodies (BD Biosciences, San José, CA, USA) for P-selectin, CD63, activated GPIIb/IIIa (PAC-1), and fibrinogen to assess the levels of each marker on the platelet membrane. The sample was acquired using the BD Facs Lyric flow cytometer (BD Biosciences, USA). Representative dot plots are available in Supplementary Figures 8-11 and 20-23. In the case of the activation markers P-selectin and bound fibrinogen in PRP, the same procedure for washed platelets was performed with representative dot plots available in Supplementary Figs. 15 and 16. The platelet population was identified with anti-CD61-PE or anti-CD61-FITC (BD Biosciences, San José, CA, USA).

Washed platelets [3] = assay: Mitochondrial membrane potential (TMRM); assay type: cell-based, Human; conditions: compounds 1, 5 and 10 μM, 20 min
Experimental: as §1
Mitochondrial membrane potential (ΔΨm). Washed platelets (50 × 10^6 platelets/mL) were labeled with a 100 nM tetramethylrhodamine methyl ester (TMRM) probe and incubated with compounds (1, 5 and 10 μM) for 20 min at 37 °C. The sample was acquired in the BD Facs Lyric flow cytometer (BD Biosciences, USA). Representative dot plots are available in Supplementary Figs. 12, 24, and 25. Carbonyl cyanide 4-(trifluoromethoxy) phenylhydrazone (FCCP) 1 μM was used as a control for decreasing the mitochondrial membrane potential.

Washed platelets [4] = assay: Intraplatelet (cytosolic) ROS levels (DHE); assay type: cell-based, Human; conditions: compounds 1, 5 and 10 μM, 10 min
Experimental: as §1
Intraplatelet ROS levels. Washed platelets (50 × 10^6 platelets/mL) were labeled with the dihydroethidium (DHE) probe 10 μM and incubated for 20 min at 37 °C protected from light. After, compounds (1, 5, and 10 μM) were added to the platelets and incubated for 10 min at 37 °C. The sample was acquired in the BD Facs Lyric flow cytometer (BD Biosciences, USA). Representative dot plots are available in Supplementary Figs. 18 and 27. As a positive control for ROS, antimycin A 20 μM was used.

Washed platelets [5] = assay: Intraplatelet calcium levels (Fluo-4-AM); assay type: cell-based, Human; conditions: compounds 1, 5 and 10 μM, 10 min
Experimental: as §1
Intraplatelet calcium levels. Washed platelets (200-250 × 10^6 platelets/mL) were labeled Fluo-4-AM probe with 0.5 μM and incubated for 20 min at room temperature protected from light. Subsequently, platelets were adjusted to a count of 50 × 10^6 platelets/mL, and compounds (1, 5, and 10 μM) were added and incubated for 10 min at 37 °C. The sample was acquired in the BD Facs Lyric flow cytometer (BD Biosciences, USA). Representative dot plots are available in Supplementary Figs. 13 and 26. As a control for increased intracellular calcium, P-trifluoromethoxyphenylhydrazone carbonylcyanide (FCCP) 1 μM was used.

Washed platelets [6] = assay: Cellular cytotoxicity by release of lactate dehydrogenase (LDH); assay type: cell-based, Human; conditions: screening at 10–100 μM
Experimental: as §1
Cellular cytotoxicity by the release of lactate dehydrogenase (LDH). Washed platelets (200-250 × 10^6 platelets/mL) were incubated with the compounds under study or vehicle for 15 min at 37 °C. Then, the platelets were centrifuged at 900 g for 8 min to collect the supernatant. […] The absorbance was analyzed at 490 nm (Microplate Reader Thermo Scientific Multiskan Go, Finland).

platelets = assay: Oxygen consumption and extracellular acidification rate (Seahorse XFe24); assay type: cell-based, Human; conditions: 10 µM
Experimental: as §1
Oxygen consumption and extracellular acidification rate. Oxygen consumption rate (OCR) and extracellular acidification rate (ECAR) were measured with a Seahorse XFe24 extracellular flux analyzer (Agilent, Santa Clara, CA, USA). Briefly, 100 μL of platelets washed in modified Tyrode-HEPES buffer were deposited (20–25 × 10^6 cells/well) and then centrifuged at 300 g for 10 min. Platelets were incubated with NP4 10 μM for 5 min, and then Tyrode's-HEPES buffer was removed and Seahorse medium (8.3 g/L DMEM, 1.85 g/L NaCl, 5 mM glucose, 1 mM pyruvate, 2 mM glutamine, 5 mM HEPES, pH 7.4) was added to a final volume of 600 μL [70]. OCR was measured before and after the sequential addition of 3 μg/mL collagen, 2.5 μM oligomycin, 1.4 μM FCCP, and 2 μM/2 μM antimycin A/rotenone. Non-mitochondrial OCR was subtracted from all measurements. Respiratory parameters obtained with Mito Stress Test (Supplementary Table 1) were calculated as follows: Baseline (baseline OCR), collagen (OCR after collagen addition), activation (collagen-basal), ATP-independent or proton leak (OCR resistant to oligomycin addition), ATP-linked respiration (basal-proton leak), maximum (OCR obtained after addition of FCCP), and spare (maximal-basal), coupling efficiency (OCR Basal – OCR ATP-indep)/OCR Basal). Respiratory parameters were calculated according to Refs. [66, 70, 73].

[7] = Homo sapiens, Platelet, PMA 100 nM, read-out: IC50 for platelet aggregation, PMA
[8] = Homo sapiens, Platelet, TRAP-6 5 μM, read-out: IC50 for platelet aggregation, TRAP-6
[9] = Homo sapiens, Platelet, arachidonic acid 250 μg/mL, read-out: IC50 for platelet aggregation, Arachidonic Acid
[10] = Homo sapiens, Platelet, collagen 2 μg/mL, read-out: IC50 for platelet aggregation, Collagen

Compound	IC50 (Washed platelets [1]; [7])	IC50 (Washed platelets [1]; [8])	IC50 (Washed platelets [1]; [9])	IC50 (Washed platelets [1]; [10])	Bound fibrinogen platelet activation marker (Washed platelets [2])	CD63 platelet activation marker (Washed platelets [2])	PAC-1 (activated GPIIb/IIIa) platelet activation marker (Washed platelets [2])	Mitochondrial membrane potential (ΔΨm) (Washed platelets [3])	Cytosolic total ROS levels (Washed platelets [4])	Intraplatelet calcium levels (Washed platelets [5])	other results
CCCCC1=CC(C)(C)c2c(O)c(C)c(C)c(O)c2C1=O [NH4, 2-Butyl-5,8-dihydroxy-4,4,6,7-tetramethylnaphthalen-1(4H)-one]	> 20 µM	> 20 µM	> 20 µM	4.76 ± 0.7 µM	did not have significant effects	did not have significant effects	did not have significant effects	significantly decrease	neither NP4 nor NH4 significantly affected	increase it significantly	
COc1c(C)c(C)c(O)c2c1C(C)(C)C=C(CCCCBr)C2=O [NBO4, 2-(4-bromobutyl)-8-hydroxy-5-methoxy-4,4,6,7-tetramethylnaphthalen-1(4H)-one]	> 20 µM	> 20 µM	> 20 µM	4.87 ± 1.15 µM							
Cc1c(C)c(O)c2c(c1O)C(=O)C(CCCCBr)=CC2(C)C [NB4, 2-(4-bromobutyl)-5,8-dihydroxy-4,4,6,7-tetramethylnaphthalen-1(4H)-one]	> 20 µM	> 20 µM	> 20 µM	15.3 ± 2.61 µM							
COc1c(C)c(C)c(O)c2c1C(C)(C)C=C(CCCC[P+](c1ccccc1)(c1ccccc1)c1ccccc1)C2=O.[Br-] [NPO4, (4-(8-hydroxy-5-methoxy-4,4,6,7-tetramethyl-1-oxo-1,4-dihydronaphthalen-2-yl)butyl)triphenyl phosphonium bromide]											Cytotoxicity by LDH release (screening) (Washed platelets [6]): *NPO4 was excluded because showed high cytotoxicity; melting point: 91.5 to 93 °C
CCCCC1=CC(C)(C)c2c(OC)c(C)c(C)c(O)c2C1=O [NHO4, 2-Butyl-8-hydroxy-5-methoxy-4,4,6,7-tetramethylnaphthalen-1(4H)-one]	> 20 µM	> 20 µM	> 20 µM	18.4 ± 5.26 µM							
CCCC[P+](c1ccccc1)(c1ccccc1)c1ccccc1 [TPPBut, butyltriphenylphosphonium cation, reference compound]					did not show any effect	did not show any effect	did not show any effect	did not show any effect	did not show any effect	did not show any effect	IC50 (Washed platelets [1]; PMA 100 nM, read-out: IC50 for platelet aggregation, PMA): > 20 µM; IC50 (Washed platelets [1]; TRAP-6 5 μM, read-out: IC50 for platelet aggregation, TRAP-6): > 20 µM; IC50 (Washed platelets [1]; arachidonic acid 250 μg/mL, read-out: IC50 for platelet aggregation, Arachidonic Acid): > 20 µM; IC50 (Washed platelets [1]; collagen 2 μg/mL, read-out: IC50 for platelet aggregation, Collagen): 13.7 ± 2.27 µM; IC50 (Washed platelets [1]; convulxin 20 ng/mL, read-out: IC50 for platelet aggregation, Convulxin): > 20 µM; P-selectin platelet activation marker (Washed platelets [2]): did not show any effect; ATP-dep (OCRBasal – OCRATP-indep) (platelets): 5,68 ± 0,10; Activation (OCRCollagen – OCRBasal) (platelets): 0,59 ± 0,20; Coupling efficiency ((OCRBasal – OCRATP-indep)/OCRBasal) (platelets): 0,92 ± 0,01; Spare (OCRMaximum – OCRBasal) (platelets): 0,73 ± 0,27; Basal (OCR/10^6 platelets) (platelets; Seahorse Mito Stress Test): 6,21 ± 0,08 OCR/10^6 platelets; Maximum (OCR/10^6 platelets) (platelets; after 1.4 μM FCCP): 6,94 ± 0,19 OCR/10^6 platelets; Collagen (OCR/10^6 platelets) (platelets; after 3 μg/mL collagen): 6,80 ± 0,16 OCR/10^6 platelets; Non-mito (OCR/10^6 platelets) (platelets; after antimycin A/rotenone): 0,01 ± 0,02 OCR/10^6 platelets; ATP-indep (OCR/10^6 platelets) (platelets; proton leak, after 2.5 μM oligomycin): 0,52 ± 0,05 OCR/10^6 platelets
